Assays:
Assay in all cases: thermal shift assay, SYPRO Orange
Type in all cases: binding
BfPNK/CPDase = target: T1, BfPNK/CPDase (Branchiostoma floridae, UniProt A0A9J7HK91); conditions: 1000 µM; 50 mM HEPES pH 7.5, 150 mM NaCl, 1 mM ligand; ligand-free reference in the 1st table, row 9
T1 construct: gene LOC118405679; full length; N-terminal His6-3C tag cleaved; from E. coli Rosetta(DE3); monomer under reducing conditions
Text: thermal shift assay, SYPRO Orange on BfPNK/CPDase

ScTrl1 PNK/CPDase = target: T2, ScTrl1 PNK/CPDase (Saccharomyces cerevisiae, UniProt P09880); conditions: 1000 µM; 50 mM HEPES pH 7.5, 150 mM NaCl, 1 mM ligand; ligand-free reference in the 1st table, row 3
T2 construct: gene TRL1; PNK + CPDase domains of Trl1 (C-terminal part, ligase domain absent); N-terminal His6-3C tag cleaved; E. coli Rosetta(DE3); monomer
T2 sequence (P09880 389-827 limits assumed): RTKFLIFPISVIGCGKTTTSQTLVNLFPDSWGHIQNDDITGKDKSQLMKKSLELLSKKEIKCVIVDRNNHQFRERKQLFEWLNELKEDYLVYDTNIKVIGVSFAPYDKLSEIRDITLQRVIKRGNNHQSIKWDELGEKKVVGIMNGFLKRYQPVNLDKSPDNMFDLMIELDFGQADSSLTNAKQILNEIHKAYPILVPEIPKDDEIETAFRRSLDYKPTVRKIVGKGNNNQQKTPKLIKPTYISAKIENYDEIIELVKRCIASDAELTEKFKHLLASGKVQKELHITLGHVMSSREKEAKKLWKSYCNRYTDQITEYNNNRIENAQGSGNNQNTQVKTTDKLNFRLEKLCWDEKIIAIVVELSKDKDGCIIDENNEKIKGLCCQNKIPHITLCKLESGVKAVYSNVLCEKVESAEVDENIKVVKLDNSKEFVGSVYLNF
Text: thermal shift assay, SYPRO Orange on ScTrl1 PNK/CPDase

ScTrl1 CPDase = target: T3, ScTrl1 CPDase (Saccharomyces cerevisiae, UniProt P09880); conditions: 1000 µM; 50 mM HEPES pH 7.5, 150 mM NaCl, 1 mM ligand; ligand-free reference in the 1st table, row 6
T3 construct: gene TRL1; not the N+ or N- variants; N-terminal His6-3C tag cleaved; E. coli Rosetta(DE3); monomer
T3 sequence (P09880 561-827 limits assumed): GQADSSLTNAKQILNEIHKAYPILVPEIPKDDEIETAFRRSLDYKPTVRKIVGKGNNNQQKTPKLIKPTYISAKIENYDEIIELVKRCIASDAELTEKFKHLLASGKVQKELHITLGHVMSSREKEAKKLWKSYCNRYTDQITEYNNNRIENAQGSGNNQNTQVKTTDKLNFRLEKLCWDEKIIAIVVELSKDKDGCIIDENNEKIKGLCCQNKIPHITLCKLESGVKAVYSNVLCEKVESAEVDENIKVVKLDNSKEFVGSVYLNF
Text: thermal shift assay, SYPRO Orange on ScTrl1 CPDase

T1 sequence (A0A9J7HK91 entry or part of it): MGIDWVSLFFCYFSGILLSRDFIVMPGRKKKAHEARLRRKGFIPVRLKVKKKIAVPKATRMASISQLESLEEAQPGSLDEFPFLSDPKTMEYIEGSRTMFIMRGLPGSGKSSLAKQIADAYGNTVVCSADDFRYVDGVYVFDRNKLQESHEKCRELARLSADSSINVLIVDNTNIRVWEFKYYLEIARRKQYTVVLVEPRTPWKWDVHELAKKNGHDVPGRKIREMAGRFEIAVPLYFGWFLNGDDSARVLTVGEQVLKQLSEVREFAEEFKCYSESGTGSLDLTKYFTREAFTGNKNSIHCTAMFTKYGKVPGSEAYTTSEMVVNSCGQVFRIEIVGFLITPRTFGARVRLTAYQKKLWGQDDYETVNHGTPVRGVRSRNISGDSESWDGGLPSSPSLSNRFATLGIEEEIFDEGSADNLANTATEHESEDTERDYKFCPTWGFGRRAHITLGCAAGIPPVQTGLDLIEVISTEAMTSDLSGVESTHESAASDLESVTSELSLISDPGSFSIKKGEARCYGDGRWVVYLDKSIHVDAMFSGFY

Tm (°C) (BfPNK/CPDase): 48 °C | Tm (°C) (ScTrl1 PNK/CPDase): 63 °C | Tm (°C) (ScTrl1 CPDase): 72 °C
SMILES: NC(=O)c1ccc[n+]([C@@H]2O[C@H](COP(=O)(O)OP(=O)(O)OC[C@H]3O[C@@H](n4cnc5c(N)ncnc54)[C@@H]4OP(=O)(O)O[C@@H]43)[C@@H](O)[C@H]2O)c1 [2′,3′-cNADP^+]

From paper PMC5434554, “Structural similarities and functional differences clarify evolutionary relationships between tRNA healing enzymes and the myelin enzyme CNPase” (BMC Biochemistry, 2017)
